From US10508090B2, “Sulfonamides as GPR40- and GPR120-agonists” (DOMPÉ FARMACEUTICI S.P.A., priority 2016, dated 2019)

Experiments:
NCI-H716 cells = experiment: In vitro GLP-1 secretion in differentiated NCI-H716 cells (ELISA); format: cell-based, human; conditions: for fold induction at 100 µM: Homo sapiens, NCI-H716, 0.5 h, compound at 100 μM for 30 minutes, differentiated NCI-H716 cells, read-out: GLP-1 RELEASE NCI, fold of increase over DMSO
Method: (§1) GPR120/40 Activation: In Vitro GLP-1 Secretion
(§2) 2×10^5 STC-1 cells were seeded in a 12-plate and 24 hours later were treated with selected compounds. 1×10^6 NCI-H716 cells were differentiated in matrigel-coated 12-plate and treated 48 h hours later.
(§3) The day of the experiment, wells were washed once with 1 ml of PBS and then cells were stimulated with 0.5 ml of DMEM (w/o serum, w/o phenol-red) containing 30 μM of selected compounds in STC1 and 100 μM in differentiated NCIH716 for 30 minutes. DMSO has been used as negative control, α-linolenic acid (ALA) (endogenous agonist) as positive control. After stimulations, supernatants were collected, centrifuged at 4000 rpm for 4′ at 4° C., and used for the GLP1 detection by ELISA.

human GPR120 = molecular target: T1, human GPR120 (Homo sapiens, UniProt Q5NUL3); experiment: In vitro Ca2+ mobilization, CHO-k1 cells stably expressing human GPR120; format: cell-based; conditions: for AC50: intracellular calcium, CHO-k1 cells expressing human GPR120, read-out: Ca2+ hGPR120 AC50
T1 construct: expressed in transfected cells; host or cells: CHO-k1
T1 sequence (Q5NUL3 1-361): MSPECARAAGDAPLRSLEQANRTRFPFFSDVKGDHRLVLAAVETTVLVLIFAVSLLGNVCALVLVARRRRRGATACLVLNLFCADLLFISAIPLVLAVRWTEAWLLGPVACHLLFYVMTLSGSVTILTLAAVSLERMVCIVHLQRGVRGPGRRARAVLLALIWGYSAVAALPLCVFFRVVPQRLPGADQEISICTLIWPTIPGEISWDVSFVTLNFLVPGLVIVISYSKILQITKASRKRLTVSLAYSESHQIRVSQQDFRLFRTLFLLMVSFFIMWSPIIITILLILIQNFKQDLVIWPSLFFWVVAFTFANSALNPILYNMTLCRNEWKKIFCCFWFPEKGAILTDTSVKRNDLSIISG
Method: (§4) GPR120/40 Activation: In Vitro Ca^2+ Mobilization
(§5) The activation of GPR120/40 by all compounds was determined by measuring changes in intracellular calcium levels using a Ca^2+ sensitive fluorescent dye.
(§6) The experiments were performed using CHO-k1 cells stably expressing the human GPR120 or GPR40. Cells were seeded 10000 cells/well in 384-plates in complete medium and grown overnight at 37° C., 5% CO2. 24 h after seeding, cell culture media was removed and cells were loaded with the fluorescent Ca^2+ indicator (Fluo-8 NW dye in Tyrode's buffer). Dye-loaded cell plates were incubated for 1 h at room temperature under a yellow light sodium lamp.
(§7) Cell were treated with test compounds and controls at 10, 30 and 60 μM. The kinetic response was monitored over a period of 7 minutes (using FLIPRTETRA system). A second injection of 3× concentrated reference agonist at ˜EC50 were then administered to cells and the signal of the emitted fluorescence was measured over a period of additional 3 minutes. The agonist effect is expressed as a percentage of activation, with 100% activation being a result in which the Response Values of the test wells reach a level identical to the one of the Stimulator Controls (alpha linolenic acid reference agonist EC100). 0% activation is a result in which the Response Values of the test wells reach a level identical to the one of the Neutral Controls (assay buffer) in the AGO_KRV (Agonist Kinetic Response Value) response value.

human GPR40 = molecular target: T2, human GPR40 (Homo sapiens, UniProt O14842); experiment: In vitro Ca2+ mobilization, CHO-k1 cells stably expressing human GPR40; format: cell-based; conditions: for AC50: read-out: Ca2+ hGPR40 AC50
T2 construct: expressed in transfected cells; host or cells: CHO-k1
T2 sequence (O14842 whole entry): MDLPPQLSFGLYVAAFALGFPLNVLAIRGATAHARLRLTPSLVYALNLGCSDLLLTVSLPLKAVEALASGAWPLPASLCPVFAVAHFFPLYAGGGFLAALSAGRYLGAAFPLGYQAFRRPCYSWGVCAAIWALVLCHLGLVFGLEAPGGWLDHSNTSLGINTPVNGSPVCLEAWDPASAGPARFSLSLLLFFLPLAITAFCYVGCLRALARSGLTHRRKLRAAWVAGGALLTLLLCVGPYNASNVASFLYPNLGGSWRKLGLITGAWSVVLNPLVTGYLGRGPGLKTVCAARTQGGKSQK
Method: as §4, §5, §6, §7

STC-1 cells = experiment: In vitro GLP-1 secretion in STC-1 cells (ELISA); format: cell-based, murine; conditions: for fold induction at 30 µM: Mus musculus, STC-1, 0.5 h, read-out: GLP-1 RELEASE STC-1, fold of increase over DMSO
Method: as §1, §2, §3

[1] = intracellular calcium, CHO-k1 cells expressing human GPR40
[2] = compound at 30 μM for 30 minutes, STC-1 cells

AC50 (human GPR120) [µM]	AC50 (human GPR40; [1]) [µM]	agonistic activity on GPR120 (AC50 in the calcium mobilization assay), in words (human GPR120)	agonistic activity on GPR40 (AC50 in the calcium mobilization assay), in words (human GPR40)	Ca2+ hGPR40 AC50 (human GPR40; [1])	SMILES	fold induction at 100 µM (NCI-H716 cells)	fold induction at 30 µM (STC-1 cells; [2])	GLP-1 secretion in NCI-H716 (human) cells, in words (NCI-H716 cells)	GLP-1 secretion in STC1 (murine) cells, in words (STC-1 cells)	GLP-1 RELEASE STC-1, fold of increase over DMSO (STC-1 cells; [2]) [fold]
17	7.9				Cc1nnc(C)n1NS(=O)(=O)c1cccc(CCCCCCC(=O)O)c1 [Example 21, 7-(3-(N-(3,5-dimethyl-4H-1,2,4-triazol-4-yl)sulfamoyl)phenyl)heptanoic acid]	2.57 ± 0.91	2.23 ± 0.98			
7.1	8.2				O=C(O)CCCCCCc1cccc(S(=O)(=O)Nc2cccc3c(O)cccc23)c1 [Example 23, 7-{3-[(5-hydroxynaphthalen-1-yl)sulfamoyl]phenyl}heptanoic acid]	4.69 ± 0.41	4.34 ± 0.51			
10.1	10.7				Cn1nnc(NS(=O)(=O)c2cccc(CCCCCCC(=O)O)c2)n1 [Example 27, 7-(3-(N-(2-methyl-2H-tetrazol-5-yl)sulfamoyl)phenyl)heptanoic acid]	2.89 ± 0.55	1.99 ± 0.51			
11.2	8.9	low microMolar range	low microMolar range		Cc1cc(F)c(-c2ccccc2)cc1NS(=O)(=O)c1cccc(CCCCCCC(=O)O)c1 [Example 9, 7-(3-(N-(6-fluoro-4-methyl-[1,1′-biphenyl]-3-yl)sulfamoyl)phenyl)heptanoic acid]	6.2	14.5	efficacious	efficacious	14.5 ± 1.24
15.2	23.9				Cc1nc(C)c(NS(=O)(=O)c2cccc(CCCCCCC(=O)O)c2)s1 [Example 13, 7-(3-(N-(2,4-dimethylthiazol-5-yl)sulfamoyl)phenyl)heptanoic acid]	1.03 ± 0.17	1.13 ± 0.15			
22.3	13.9				Cc1nsc(NS(=O)(=O)c2cccc(CCCCCCC(=O)O)c2)n1 [Example 17, 7-(3-(N-(3-methyl-1,2,4-thiadiazol-5-yl)sulfamoyl)phenyl)heptanoic acid]	2.19 ± 1.22	1.9 ± 0.51			
16.1	7.1				CC1COC(NS(=O)(=O)c2cccc(CCCCCCC(=O)O)c2)=N1 (stereo not shown) [Example 28, 7-(3-(N-(4-methyl-4,5-dihydrooxazol-2-yl)sulfamoyl)phenyl)heptanoic acid]	3.88 ± 1.96	3.64 ± 0.43			
5.72	19.8	low microMolar range	low microMolar range		Cc1cc(Br)cc(C)c1NS(=O)(=O)c1cccc(CCCCCCC(=O)O)c1 [Example 7, 7-(3-(N-(4-bromo-2,6-dimethylphenyl)sulfamoyl)phenyl)heptanoic acid]	1.9 ± 0.15	1.8 ± 0.24	efficacious	efficacious	
10.2	11.7				O=C(O)CCCCCCc1cccc(S(=O)(=O)Nc2cc(-c3ccccc3)ns2)c1 [Example 22, 7-(3-(N-(3-phenylisothiazol-5-yl)sulfamoyl)phenyl)heptanoic acid]	3.71 ± 0.67	3.13 ± 1.26			
18		low microMolar range	low microMolar range	Inactive	Cc1cc(Oc2ccccc2)cc(C)c1NS(=O)(=O)c1cccc(CCCCCCC(=O)O)c1 [Example 33, 7-(3-(N-(2,6-dimethyl-4-phenoxyphenyl)sulfamoyl)phenyl)heptanoic acid]	1.58 ± 1.27	3 ± 1.82	efficacious	efficacious	
27.8	22.4				Cc1nnc(NS(=O)(=O)c2cccc(CCCCCCC(=O)O)c2)s1 [Example 18, 7-(3-(N-(5-methyl-1,3,4-thiadiazol-2-yl)sulfamoyl)phenyl)heptanoic acid]	1.25 ± 0.8	1.98 ± 0.37			
11.7	4.7				COc1cc(C)c(NS(=O)(=O)c2cccc(CCCCCCC(=O)O)c2)c(C)c1 [Example 8, 7-(3-(N-(4-methoxy-2,6-dimethylphenyl)sulfamoyl)phenyl)heptanoic acid]	2.1 ± 0.08	1.7 ± 0.12			
17.6	12.1				Cc1noc(C)c1NS(=O)(=O)c1cccc(CCCCCCC(=O)O)c1 [Example 19, 7-(3-(N-(3,5-dimethylisoxazol-4-yl)sulfamoyl)phenyl)heptanoic acid]	2.24 ± 0.39	2.57 ± 0.56			
1.98	12.9	low microMolar range	low microMolar range		Cc1cc(C(C)C)cc(C)c1NS(=O)(=O)c1cccc(CCCCCCC(=O)O)c1 [Example 3, 7-(3-(N-(4-isopropyl-2,6-dimethylphenyl)sulfamoyl)phenyl)heptanoic acid]	2.5 ± 0.11	2.7 ± 0.31	efficacious	efficacious	
25.9	17.2				O=C(O)CCCCCCc1cccc(S(=O)(=O)Nc2nsc(-c3ccccc3)n2)c1 [Example 16, 7-(3-(N-(5-phenyl-1,2,4-thiadiazol-3-yl)sulfamoyl)phenyl)heptanoic acid]	1.69 ± 0.14	1.31 ± 0.32			
7.9	10.4				Cc1cc(N(C)C)cc(C)c1NS(=O)(=O)c1cccc(CCCCCCC(=O)O)c1 [Example 5, 7-(3-(N-(4-(dimethylamino)-2,6-dimethylphenyl)sulfamoyl)phenyl)heptanoic acid]	1.92 ± 0.14	4 ± 0.27			
24.1	27.5				Cc1nc(NS(=O)(=O)c2cccc(CCCCCCC(=O)O)c2)oc1C [Example 15, 7-(3-(N-(4,5-dimethyloxazol-2-yl)sulfamoyl)phenyl)heptanoic acid]	1.8 ± 0.91	1.19 ± 0.89			
